Active and inactive are the calls of the source. The calls are words filed in the database; no cut-off is given here.
Experiments:
Histone deacetylase 8 = molecular target: T1, Histone deacetylase 8 (Schistosoma mansoni, UniProt A5H660); assay: Inhibition of Schistosoma mansoni KDAC8 using (FAM)-labeled peptide as substrate after 60 mins by microfluidic assay; conditions: read-out: IC50
T1 sequence (A5H660 whole entry): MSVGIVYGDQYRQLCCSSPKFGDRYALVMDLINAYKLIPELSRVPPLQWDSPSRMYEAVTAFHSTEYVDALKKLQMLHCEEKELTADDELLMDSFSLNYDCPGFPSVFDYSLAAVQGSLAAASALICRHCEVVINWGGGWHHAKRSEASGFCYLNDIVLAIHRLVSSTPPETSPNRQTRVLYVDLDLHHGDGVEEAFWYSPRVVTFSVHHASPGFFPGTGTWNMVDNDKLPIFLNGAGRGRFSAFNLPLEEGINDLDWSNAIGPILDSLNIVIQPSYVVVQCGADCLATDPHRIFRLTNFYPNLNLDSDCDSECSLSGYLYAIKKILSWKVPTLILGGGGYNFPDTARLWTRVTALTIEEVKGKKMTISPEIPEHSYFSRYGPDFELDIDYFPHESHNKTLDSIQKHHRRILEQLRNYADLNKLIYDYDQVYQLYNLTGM

[1] = molecular target: T2, Histone deacetylase 8 (Schistosoma mansoni) (UniProt A5H660); assay: Inhibition of Schistosoma mansoni KDAC8 at 30 uM using (FAM)-labeled peptide as substrate after 60 mins by microfluidic assay
T2 sequence (whole entry): T1 sequence (A5H660 whole entry)

SMILES | IC50 (Histone deacetylase 8) | inhibition [1]
CC(C)[C@@H]1NC(=O)[C@@H]2CCCN2C(=O)[C@@H]2CCCN2C(=O)C[C@@H](C(=O)NCCCC(=O)NO)NC1=O | > 30 µM | 32%
CC[C@H](C)[C@@H]1N=C(c2ccccc2)c2ccccc2N(CCCCC(=O)OC)C1=O | > 30 µM | 0%
O=C(O)CCCCN1C(=O)[C@H](CCC(=O)O)N=C(c2ccccc2)c2ccccc21 | > 30 µM | 0%
CC(C)(C)OC(=O)CC[C@@H]1N=C(c2ccccc2)c2ccccc2N(CCCCC(=O)NO)C1=O | > 30 µM | 24.9%
COC(=O)CCCCN1C(=O)[C@H](Cc2ccccc2)N=C(c2ccccc2)c2ccccc21 | > 30 µM | 0%
O=C(CC[C@@H]1N=C(c2ccccc2)c2ccccc2NC1=O)NC(c1ccccc1)(c1ccccc1)c1ccccc1 | > 30 µM | 10.4%
CSCC[C@@H]1N=C(c2ccccc2)c2ccccc2NC1=O | > 30 µM | 0%
CC(C)(C)OC(=O)n1c(C[C@@H]2N=C(c3ccccc3)c3ccccc3N(CCCCC(=O)NO)C2=O)cc2ccccc21 | > 30 µM | 12.5%
O=C(O)CCCCN1C(=O)[C@H](Cc2cncn2C(c2ccccc2)(c2ccccc2)c2ccccc2)N=C(c2ccccc2)c2ccccc21 | > 30 µM | 0%
NC(=O)C[C@@H]1N=C(c2ccccc2)c2ccccc2N(CCCCC(=O)NO)C1=O | > 30 µM | 0%
C[C@H](OCc1ccccc1)[C@@H]1N=C(c2ccccc2)c2ccccc2N(CCCCC(=O)O)C1=O | > 30 µM | 0%
O=C(C[C@@H]1N=C(c2ccccc2)c2ccccc2NC1=O)NC(c1ccccc1)(c1ccccc1)c1ccccc1 | > 30 µM | 0%
CCC(C)[C@@H]1N=C(c2ccccc2)c2ccccc2N(CCCCC(=O)NO)C1=O (single isomer, unassigned) | > 30 µM | 11.7%
Nc1ccccc1NC(=O)c1ccc(CNC(=O)OCc2cccnc2)cc1 [ENTINOSTAT] | > 30 µM | inactive
CC(C)(C)Oc1ccc(C[C@@H]2N=C(c3ccccc3)c3ccccc3N(CCCCC(=O)NO)C2=O)cc1 | 10.3 µM | 74%
CC(C)(C)OC(=O)CC[C@H]1N=C(c2ccccc2)c2ccccc2NC1=O | > 30 µM | 12.3%
CC(C)C[C@@H]1N=C(c2ccccc2)c2ccccc2N(CCCCC(=O)O)C1=O | > 30 µM | 0%
COC(=O)CCCCN1C(=O)[C@H](C)N=C(c2ccccc2)c2ccccc21 | > 30 µM | 0%
O=C(CCCCN1C(=O)[C@H](Cc2ccc(O)cc2)N=C(c2ccccc2)c2ccccc21)NO | > 30 µM | 0%
O=C(O)CCCCN1C(=O)[C@H](Cc2ccccc2)N=C(c2ccccc2)c2ccccc21 | > 30 µM | 0%
O=C(CCCCN1C(=O)CN=C(c2ccccc2)c2ccccc21)NO | > 30 µM | 39.7%
CC(C)(C)OC(=O)NCCCC[C@@H]1N=C(c2ccccc2)c2ccccc2N(CCCCC(=O)NO)C1=O | > 30 µM | 25.1%
CC(=O)SCC/C=C/[C@@H]1CC(=O)NCc2ccc(cc2)C2=N[C@@](C)(CS2)C(=O)N[C@@H](C(C)C)C(=O)O1 | > 30 µM | inactive
CC(C)[C@@H]1N=C(c2ccccc2)c2ccccc2NC1=O | > 30 µM | 0%
O=C(CCCCN1C(=O)[C@H](CCC(=O)NO)N=C(c2ccccc2)c2ccccc21)NO | > 30 µM | 33.5%
O=C(O)CC[C@@H]1N=C(c2ccccc2)c2ccccc2N(CCCCC(=O)NO)C1=O | > 30 µM | 13.4%
